Test results published in patent publication US20190127354A1, “2,4,6,7-TETRASUBSTITUTED QUINOLINE COMPOUNDS AS INHIBITORS OF DNA […]” (FUNDACIÓN PARA LA INVESTIGACIÓN MÉDICA APLICADA, priority 2015, published 2019).

Tests used:
Test in all cases: Cell proliferation assay (CellTiter 96 Aqueous One Solution)
Assay type in all cases: cell-based
CEMO-1 = details: acute lymphocytic leukemia (ALL) cells, 48 hours of treatment
Description: (§1) Cell proliferation was analyzed after 48 hours of in vitro treatment using the CellTiter 96 Aqueous One Solution Cell Proliferation Assay (Promega, Madison, W). This is a colorimetric method for determining the number of viable cells in proliferation.
(§2) For the assay, suspension cells were cultured by triplicate at a density of 1×10^6 cells/ml in 96-well plates (100.000 cells/well, 100 μl/well), except for HepG2, Hep3B and PLC/PRF/5 cell lines which were cultured at a density of 3000 cells/well, 100 μl/well).
(§3) Adherent cells were obtained from 80-90% confluent flasks and 100 μl of cells were seeded at a density of 5000 cells/well in 96-well plates by triplicate. Before addition of the compounds, adherent cells were allowed to attach to the bottom of the wells for 12 hours. In all cases, only the 60 inner wells were used to avoid any border effects.
(§4) After 48 hours of treatment, plates with suspension cells were centrifuged at 800g for 10 minutes and medium was removed. The plates with adherent cells were flicked to remove medium. Then, cells were incubated with 100 μl/well of medium and 20 μl/well of CellTiter 96 Aqueous One Solution reagent. After 1-3 hours of incubation at 37° C., absorbance was measured at 490 nm in a 96-well plate reader. The background absorbance was measured in wells with only cell line medium and solution reagent. Data was calculated as a percentage of total absorbance of treated cell/absorbance of non treated cells.

HepG2 = details: Homo sapiens, hepatocellular carcinoma cells, 48 hours of treatment
Description: as §1, §2, §3, §4

Hep3B = details: Homo sapiens, hepatocellular carcinoma cells, 48 hours of treatment
Description: as §1, §2, §3, §4

With COc1cc2c(N(C)C3CCN(C)CC3)cc(-c3ccc(C)o3)nc2cc1OCCCN1CCCC1 [Compound 1-02] the GI50 (CEMO-1) was ≥ 10 µM, the GI50 (HepG2) was 1 to 10 µM and the GI50 (Hep3B) was 1 to 10 µM.
